Experimental data reported in paper PMC5552351, “Bacteriological profiling of diphenylureas as a novel class of antibiotics against methicillin-resistant Staphylococcus aureus” (PLoS ONE, 2017).
Values after ≈ are worked out from the molar mass of the structure shown.

Legend:
[1] = test system: MRSA NRS123 (USA400); assay: broth microdilution MIC/MBC; format: cell-based; settings: Staphylococcus aureus, MRSA NRS123 (USA400); for MBC: read-out: MBC; for MIC: read-out: MIC
Description: (§1) The broth microdilution assay was employed to determine the MIC of compounds 1, 2, and vancomycin against five MRSA strains, four VRSA strains, one highly mupirocin-resistant S. aureus strain, one biofilm-forming S. aureus (ATCC 6538) strain, and one biofilm-forming methicillin-resistant S. epidermidis strain, as per the guidelines of the Clinical and Laboratory Standards Institute (CLSI). […] The MBC was determined by plating an aliquot (5 μL) from wells with no growth onto TSA plates. Plates were incubated at 37 °C for 19 hours before recording the MBC (concentration where no growth was observed on TSA plates).

[2] = test system: MRSA NRS384 (USA300); assay: broth microdilution MIC/MBC; format: cell-based; settings: Staphylococcus aureus, MRSA NRS384 (USA300); for MBC: read-out: MBC; for MIC: read-out: MIC
Description: as §1

[3] = test system: MRSA NRS387 (USA800); assay: broth microdilution MIC/MBC; format: cell-based; settings: Staphylococcus aureus, MRSA NRS387 (USA800); for MBC: read-out: MBC; for MIC: read-out: MIC
Description: as §1

[4] = test system: MRSA NRS483 (USA1000); assay: broth microdilution MIC/MBC; format: cell-based; settings: Staphylococcus aureus, MRSA NRS483 (USA1000); for MBC: read-out: MBC; for MIC: read-out: MIC
Description: as §1

[5] = test system: MRSA NRS484 (USA1100); assay: broth microdilution MIC/MBC; format: cell-based; settings: Staphylococcus aureus, MRSA NRS484 (USA1100); for MBC: read-out: MBC; for MIC: read-out: MIC
Description: as §1

[6] = test system: S. aureus NRS107; assay: broth microdilution MIC/MBC; format: cell-based; settings: Staphylococcus aureus, S. aureus NRS107; for MBC: read-out: MBC; for MIC: read-out: MIC
Description: as §1

[7] = test system: VRS10; assay: broth microdilution MIC/MBC; format: cell-based; settings: Staphylococcus aureus, VRS10, vancomycin-resistant S. aureus; for MBC: read-out: MBC; for MIC: read-out: MIC
Description: as §1

[8] = test system: VRS11a; assay: broth microdilution MIC/MBC; format: cell-based; settings: Staphylococcus aureus, VRS11a, vancomycin-resistant S. aureus; for MBC: read-out: MBC; for MIC: read-out: MIC
Description: as §1

[9] = test system: VRS4; assay: broth microdilution MIC/MBC; format: cell-based; settings: Staphylococcus aureus, VRS4, vancomycin-resistant S. aureus; for MBC: read-out: MBC; for MIC: read-out: MIC
Description: as §1

[10] = test system: VRS7; assay: broth microdilution MIC/MBC; format: cell-based; settings: Staphylococcus aureus, VRS7, vancomycin-resistant S. aureus; for MBC: read-out: MBC; for MIC: read-out: MIC
Description: as §1

[11] = test system: S. aureus ATCC 6538; assay: broth microdilution MIC; format: cell-based; settings: Staphylococcus aureus, ATCC6538; S. aureus ATCC 6538, biofilm-forming strain; read-out: MIC
Description: as §1

[12] = test system: S. epidermidis NRS101; assay: broth microdilution MIC; format: cell-based; settings: Staphylococcus epidermidis; S. epidermidis NRS101, biofilm-forming strain; read-out: MIC
Description: as §1

[13] = test system: clinically-relevant strains of MRSA and VRSA; assay: broth microdilution MIC/MBC, panel summary; format: cell-based; settings: Staphylococcus aureus, summary over the MRSA isolates of Table 1; read-out: concentration inhibiting growth of MRSA isolates (MIC)
Description: as §1

[14] = test system: MRSA USA300 (NRS384); assay: time-kill assay; format: cell-based, Staphylococcus aureus; settings: 4 × MIC; for reduction of MRSA CFU/mL: within two hours
[15] = test system: human epithelial colorectal (Caco-2) cell line; assay: MTS cytotoxicity assay; format: cell-based; settings: Caco-2, MTS assay, highest concentration tested
Description: Compounds 1 and 2 were assayed (at concentrations of 16 μg/mL, 32 μg/mL, 64 µg/mL, and 128 μg/mL) against a human epithelial colorectal (Caco-2) cell line (American Type Culture Collection, ATCC HTB-37) using the MTS assay. Cells were cultured in DMEM supplemented with penicillin-streptomycin, nonessential amino acids (1%), and FBS (10%), at 37 °C with CO2 (5%). The cells were incubated with compounds (in triplicate) or DMSO (negative control) in a 96-well tissue culture-treated plate at 37 °C with CO2 (5%) for two hours. The MTS assay reagent (Promega, Madison, WI, USA) was subsequently added to each well and plates were incubated for four hours at 37 °C with CO2 (5%). The quantity of viable cells (at OD490) after treatment was expressed as a percentage of the viability of DMSO-treated control cells (average of triplicate wells ± standard deviation). The toxicity data was analyzed via a two-way ANOVA, with post hoc Dunnet’s multiple comparisons test (n = 3, P < 0.05), utilizing GraphPad Prism 6.0 (GraphPad Software, La Jolla, CA).

[16] = test system: MRSA USA400 (NRS123); assay: multi-step resistance selection; format: cell-based, Staphylococcus aureus; settings: for increase in MIC after fourteen passages: MRSA USA400 (NRS123), fourteen passages over two weeks
Description: To assess MRSA’s ability to develop resistance to the diphenylurea compounds after repeated exposure, a multi-step resistance selection experiment was conducted. […] Resistance was classified as a greater than four-fold increase in the initial MIC, as reported elsewhere.

[17] = test system: S. aureus ATCC 6538 biofilm; assay: biofilm mass disruption, crystal violet reporter assay; format: cell-based, Staphylococcus aureus; settings: all concentrations tested
Description: Compounds 1, 2, and vancomycin were examined for their ability to eradicate mature staphylococcal biofilm using the microtiter dish biofilm formation assay. S. epidermidis NRS101 and S. aureus ATCC 6538 were selected as the test organisms given their ability to form strong adherent biofilm. An overnight culture of bacteria was diluted (1:100 in TSB + 1% glucose) and transferred to a 96-well plate. The plate was incubated for 24 hours at 37 °C in order to form adherent biofilm on the surface of the plate wells. The medium containing the bacterial suspension was removed and the biofilm was washed with sterile PBS to remove planktonic cells. Compounds 1, 2, or vancomycin (from 128 to 1 μg/mL), in triplicate, in TSB were incubated with the biofilm for 24 hours at 37 °C.
Compounds were subsequently removed. The biofilm was washed with PBS and then stained with 1% (w/v) crystal violet for 40 minutes. The stain was removed and wells were washed with sterile PBS. Wells were next decolorized using 95% ethanol. The optical density of each well at 595 nm was measured using a microplate reader.

[18] = test system: human keratinocyte cell line; parameters: method as in PMID 28249208; settings: human keratinocytes; ref [21]; cited from earlier work
[19] = parameters: method as in PMID 28249208; settings: human liver microsomes; ref [21]; cited from earlier work

In the case of C/C(=N\NC(=N)N)c1ccc(NC(=O)Nc2ccc(OCCC(C)C)cc2)cc1 [compound 1], the MBC [1] was 4 µg/mL (≈ 10.1 µM), the MIC [1] was 4 µg/mL (≈ 10.1 µM) and the MBC [2] was 4 µg/mL (≈ 10.1 µM). The MIC [2] was 4 µg/mL (≈ 10.1 µM), the MBC [3] was 4 µg/mL (≈ 10.1 µM) and the MIC [3] was 4 µg/mL (≈ 10.1 µM). For the same compound, the MBC [4] was 4 µg/mL (≈ 10.1 µM), the MIC [4] was 4 µg/mL (≈ 10.1 µM) and the MBC [5] was 8 µg/mL (≈ 20.2 µM). The MIC [5] was 8 µg/mL (≈ 20.2 µM), the MBC [6] was 4 µg/mL (≈ 10.1 µM) and the MIC [6] was 4 µg/mL (≈ 10.1 µM). For the same compound, the MBC [7] was 4 µg/mL (≈ 10.1 µM), the MIC [7] was 4 µg/mL (≈ 10.1 µM) and the MBC [8] was 4 µg/mL (≈ 10.1 µM). It also gave an MIC [8] of 4 µg/mL (≈ 10.1 µM), an MBC [9] of 8 µg/mL (≈ 20.2 µM) and an MIC [9] of 8 µg/mL (≈ 20.2 µM). The MBC [10] was 8 µg/mL (≈ 20.2 µM), the MIC [10] was 8 µg/mL (≈ 20.2 µM) and the MIC [11] was 4 µg/mL (≈ 10.1 µM). For the same compound, the MIC [12] was 2 µg/mL (≈ 5.04 µM), the MIC [13] was at least 4 µg/mL and the “time to completely eradicate a high inoculum of MRSA (~10^6 CFU/mL)” value [14] was “within four hours”. The “reduction of MRSA CFU/mL” value [14] was 3 log10, the “non-toxic up to (concentration)” value [15] was at least 128 µg/mL and the “increase in MIC after fourteen passages” value [16] was “No increase”. The MIC ([16]; Staphylococcus aureus, read-out: initial MIC) was 8 µg/mL (≈ 20.2 µM), the “change in optical density of S. aureus biofilm (biofilm mass)” value [17] was “no change” and the “non-toxic up to (concentration)” value [18] was 32 µg/mL. For the same compound, the intrinsic half-life [19] was “exceeded four hours”.
C/C(=N\NC(=N)N)c1ccc(NC(=O)Nc2ccc(OC3CCCCCC3)cc2)cc1 [compound 2] gave an MBC [1] of 8 µg/mL (≈ 18.9 µM), an MIC [1] of 8 µg/mL (≈ 18.9 µM) and an MBC [2] of 16 µg/mL (≈ 37.9 µM). The MIC [2] was 8 µg/mL (≈ 18.9 µM), the MBC [3] was 16 µg/mL (≈ 37.9 µM) and the MIC [3] was 8 µg/mL (≈ 18.9 µM). It also gave an MBC [4] of 16 µg/mL (≈ 37.9 µM), an MIC [4] of 16 µg/mL (≈ 37.9 µM) and an MBC [5] of 16 µg/mL (≈ 37.9 µM). It also gave an MIC [5] of 16 µg/mL (≈ 37.9 µM), an MBC [6] of 8 µg/mL (≈ 18.9 µM) and an MIC [6] of 8 µg/mL (≈ 18.9 µM). For the same compound, the MBC [7] was 8 µg/mL (≈ 18.9 µM), the MIC [7] was 4 µg/mL (≈ 9.47 µM) and the MBC [8] was 8 µg/mL (≈ 18.9 µM). The MIC [8] was 8 µg/mL (≈ 18.9 µM), the MBC [9] was 16 µg/mL (≈ 37.9 µM) and the MIC [9] was 16 µg/mL (≈ 37.9 µM). The MBC [10] was 16 µg/mL (≈ 37.9 µM), the MIC [10] was 16 µg/mL (≈ 37.9 µM) and the MIC [11] was 8 µg/mL (≈ 18.9 µM). For the same compound, the MIC [12] was 4 µg/mL (≈ 9.47 µM), the MIC [13] was at least 4 µg/mL and the “time to completely eradicate a high inoculum of MRSA (~10^6 CFU/mL)” value [14] was “within four hours”. For the same compound, the “reduction of MRSA CFU/mL” value [14] was 3 log10, the “non-toxic up to (concentration)” value [15] was at least 128 µg/mL and the “increase in MIC after fourteen passages” value [16] was “No increase”. The “change in optical density of S. aureus biofilm (biofilm mass)” value [17] was “no change”, the “non-toxic up to (concentration)” value [18] was 64 µg/mL and the intrinsic half-life [19] was “exceeded four hours”.
